Legend:
Format in all cases: in vivo
[1] = test system: Spodoptera littoralis (Egyptian Cotton Leafworm); assay: Spodoptera littoralis, cotton leaf disc spray test; settings: foliar, 72 h, sprayed cotton leaf discs, L1 larvae, 3 days after treatment
From the text: Cotton leaf discs were placed on agar in a 24-well microtiter plate and sprayed with test solutions at an application rate of 200 ppm. After drying, the leaf discs were infested with 5 L1 larvae. The samples were checked for mortality 3 days after treatment (DAT).

[2] = test system: Myzus persicae (Green Peach Aphid); assay: Myzus persicae, sucrose solution / Parafilm test; settings: 120 h, mixed with sucrose solution under Parafilm, mortality 5 days after infestation
In short: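 Compounds mixed into sucrose solution at 12.5 ppm, sealed under stretched Parafilm, with aphid-infested pea seedlings placed on the Parafilm and the plate inverted so aphids feed through the membrane. Mortality assessed 5 days after infestation.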

[3] = test system: Tetranychus urticae (Two-Spotted Spider Mite); assay: Tetranychus urticae, bean leaf disc spray test; settings: foliar, 192 h, sprayed bean leaf discs, mite populations of mixed ages, 8 days
From the text: Bean leaf discs on agar in 24-well microtiter plates were sprayed with test solutions at an application rate of 200 ppm. After drying, the leaf discs are infested with mite populations of mixed ages. 8 days later, discs were checked for mortality.

[4] = test system: Diabrotica balteata (Corn Root Worm); assay: Diabrotica balteata, artificial diet MTP test; settings: 120 h, 200 ppm (concentration in well 18 ppm), L2 larvae, larval mortality after 5 days
In short: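 Artificial diet treated with test solution at 200 ppm application rate (18 ppm in well), dried, then infested with L2 larvae (6-10 per well). Larval mortality checked after 5 days of incubation.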

[5] = test system: Thrips tabaci (Onion Thrips); assay: Thrips tabaci, sunflower leaf disc spray test; settings: foliar, 168 h, sprayed sunflower leaf discs, mortality after 7 days
[6] = test system: Myzus persicae (Green Peach Aphid); assay: Myzus persicae, sunflower leaf disc spray test; settings: foliar, 144 h, sprayed sunflower leaf discs, aphid population of mixed ages, mortality after 6 DAT
Method: Sunflower leaf discs were placed on agar in a 24-well microtiter plate and sprayed with test solutions at an application rate of 200 ppm. After drying, the leaf discs were infested with an aphid population of mixed ages. After an incubation period of 6 DAT, samples were checked for mortality.

[7] = test system: Plutella xylostella (Diamond Back Moth); assay: Plutella xylostella, artificial diet MTP test; settings: 144 h, 200 ppm (concentration in well 18 ppm), L2 larvae, 6 days
In short: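 Artificial diet treated at 200 ppm application rate (18 ppm in well), dried, then infested with 7–12 L2 larvae per well. Larval mortality and growth regulation assessed after 6 days.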

[8] = test system: Spodoptera littoralis (Egyptian Cotton Leaf Worm); assay: Spodoptera littoralis, agar / lettuce root uptake test; settings: 144 h, mixed with agar, uptake by lettuce roots, mortality 6 days after infestation
From the text: Test compounds were applied by pipette into 24 well plates and mixed with agar. Application rate: 12.5 ppm. Lettuce seeds were placed on the agar and the multi well plate is closed by another plate which contains also agar. After 7 days the roots have absorbed the compound and the lettuce has grown into the lid plate. The lettuce leafs were now cut off into the lid plate. Spodoptera eggs were pipetted through a plastic stencil on a humid gel blotting paper and the plate closed with it. The samples are checked for mortality 6 days after infestation.

CCc1cc(C(F)(C(F)(F)F)C(F)(F)Cl)cc(Br)c1NC(=O)c1cccc(N(CC)C(=O)c2ccc[n+]([O-])c2)c1OC (centres unmarked) [Compound 50]
≥ 80%: mortality at 200 ppm [1] | pest or weed control at 12.5 ppm [2] | mortality at 200 ppm [3] | pest or weed control at 200 ppm [4] | pest or weed control at 200 ppm [5] | pest or weed control at 200 ppm [6] | mortality at 200 ppm [7] | pest or weed control at 12.5 ppm [8]
